# Measured values: BindingDB's records for doi:10.7270/Q2KH0KWR (Burnham Center For Chemical Genomics, 2012)
# Molecular target: T1, Tyrosine-protein phosphatase non-receptor type 5 (Homo sapiens, UniProt P54829)
# T1 sequence (P54829 whole entry): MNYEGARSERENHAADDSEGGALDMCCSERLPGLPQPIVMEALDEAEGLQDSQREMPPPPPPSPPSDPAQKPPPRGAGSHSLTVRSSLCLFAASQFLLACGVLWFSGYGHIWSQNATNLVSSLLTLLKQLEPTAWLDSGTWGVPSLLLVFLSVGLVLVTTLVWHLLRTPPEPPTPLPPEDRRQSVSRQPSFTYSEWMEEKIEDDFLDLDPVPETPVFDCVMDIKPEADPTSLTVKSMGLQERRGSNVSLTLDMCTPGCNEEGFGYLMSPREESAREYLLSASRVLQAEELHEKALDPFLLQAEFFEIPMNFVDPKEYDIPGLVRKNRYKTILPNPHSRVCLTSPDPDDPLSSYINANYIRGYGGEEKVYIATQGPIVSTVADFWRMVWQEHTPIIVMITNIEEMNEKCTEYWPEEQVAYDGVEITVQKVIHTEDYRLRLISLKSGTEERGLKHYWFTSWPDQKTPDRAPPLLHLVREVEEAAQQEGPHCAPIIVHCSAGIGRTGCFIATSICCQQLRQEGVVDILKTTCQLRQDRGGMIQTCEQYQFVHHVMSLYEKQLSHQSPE
# Assay: PTPN5 inhibition measured colorimetrically – biochemical, colorimetric absorbance, orthogonal assay for STEP inhibitor project, dose response (AID 624207)
# Conditions: not given
row,IC50,Compound
1,> 80 µM,"CCOc1ccc(CCNC(=O)CS(=O)(=O)Cc2nc(-c3ccc(OC)cc3)oc2C)cc1 [N-[2-(4-ethoxyphenyl)ethyl]-2-[[2-(4-methoxyphenyl)-5-methyl-1,3-oxazol-4-yl]methylsulfonyl]ethanamide]"
2,> 80 µM,NC(=NOC(=O)c1cccc2ccccc12)c1cccc([N+](=O)[O-])c1 [N'-(1-naphthoyloxy)-3-nitrobenzenecarboximidamide]
3,> 80 µM,"S=c1[nH]nc(-c2cccnc2)n1N=Cc1ccc(Br)s1 [4-[(E)-(5-bromothiophen-2-yl)methylideneamino]-3-pyridin-3-yl-1H-1,2,4-triazole-5-thione]"
4,> 80 µM,CCCCN(CC)Cc1ccc(CN=C(S)Nc2c(C)cc(C)cc2C)o1 [N-[(5-{[butyl(ethyl)amino]methyl}-2-furyl)methyl]-N'-mesitylthiourea]
5,> 80 µM,O=C1NN(c2cccc(Br)c2)C(=O)/C1=C\c1ccc(N2CCOCC2)cc1
6,72.8 µM,S=C1N=C2C(=C3SCCS3)CCCC2C(c2ccccc2)N1 (stereo unspecified) [MLS000516376]
7,> 80 µM,"Clc1ccc(Cl)c(-c2nc(-c3ccncc3)no2)c1 [4-[5-(2,5-dichlorophenyl)-1,2,4-oxadiazol-3-yl]pyridine]"
8,19.7 µM,O=C(N/N=C/c1ccncc1)c1cccc(S(=O)(=O)Nc2ccc(Cl)cc2)c1
9,8.34 µM,"Cc1cccc(Nc2nn3c(=O)c4ccccc4nc3s2)c1 [2-[(3-methylphenyl)amino]-5H-[1,3,4]thiadiazolo[2,3-b]quinazolin-5-one]"
10,> 80 µM,"O=S(=O)(Nc1ccccc1)c1cccc2nsnc12 [N-phenyl-2,1,3-benzothiadiazole-4-sulfonamide]"
11,> 80 µM,COc1ccc(OC)c(-n2c(O)c3o[nH]c(-c4ccccc4Cl)c-3c2=O)c1 [SMR000046218]
12,> 80 µM,"COc1cc(/C=C2/SC(=S)N(CC(=O)O)C2=O)ccc1OCC(=O)Nc1ccc(C)c(C)c1 [2-[(5E)-5-[[4-[2-[(3,4-dimethylphenyl)amino]-2-oxidanylidene-ethoxy]-3-methoxy-phenyl]methylidene]-4-oxidanylidene-2-sulfanylidene-1,3-thiazolidin-3-yl]ethanoic acid]"
13,> 80 µM,CCOc1ccc(C(=O)Nc2cc(-c3nc4ccccc4[nH]3)ccc2Cl)cc1[N+](=O)[O-] [MLS000574482]
14,1.55 µM,"O=C(CSc1nc(-c2ccc(F)cc2)nc2c1Cc1ccccc1O2)Nc1cccc(C(=O)O)c1 [3-[({[2-(4-fluorophenyl)-5H-chromeno[2,3-d]pyrimidin-4-yl]thio}acetyl)amino]benzoic acid]"
15,> 80 µM,C=CC1=C(C(=O)O)N2C(=O)C(NC(=O)Cc3ccccc3)C2SC1 (stereo unspecified) [MLS000123928]
16,12.6 µM,CN1CCN(C(=S)C(=O)Nc2ccc(Br)cc2)CC1 [MLS000665240]
17,> 80 µM,Nc1ccc2c(O)cc(S(=O)(=O)O)cc2c1
18,> 80 µM,CCN(c1ccccc1)S(=O)(=O)c1cc(C(=O)OC(C)C(=O)Nc2ccc3c(c2)OCCO3)ccc1C (stereo unspecified) [SMR000242949]
19,> 80 µM,COc1ccc(NC(=O)c2cc(=O)c3ccccc3o2)cc1Cl
20,> 80 µM,COc1ccc2cc3c(N)nn(C(=O)c4cccc(F)c4)c3nc2c1 [MLS000731294]
21,32.5 µM,O=C(NN=Cc1ccccc1O)NN=Cc1ccccc1O [SMR001556943]
22,> 80 µM,"COc1cc(/C=C2/C(=O)NN(c3cccc(C)c3)C2=O)cc([N+](=O)[O-])c1O [4-(4-hydroxy-3-methoxy-5-nitrobenzylidene)-1-(3-methylphenyl)-3,5-pyrazolidinedione]"

row,IC50,Compound
1,> 80 µM,CCc1ccc(OCC(=O)Nc2ccc(-c3nc4ccccc4o3)c(O)c2)cc1 [MLS000109444]
2,6.4 µM,"Cc1c(CCC(=O)O)c(=O)oc2c(C)c(OCc3ccccc3Cl)ccc12 [3-[7-[(2-chlorophenyl)methoxy]-4,8-dimethyl-2-oxochromen-3-yl]propanoic acid]"
3,7.9 µM,CN(C)c1ccc(C(=O)OCC(=O)Nc2ccc(S(N)(=O)=O)cc2)cc1 [4-(dimethylamino)benzoic acid [2-oxo-2-(4-sulfamoylanilino)ethyl] ester]
4,> 80 µM,COc1ccccc1Nc1ccc([N+](=O)[O-])cc1N [SMR000260154]
5,> 80 µM,Cc1ccccc1N1CCN(C(=S)c2ccc(-c3cccc([N+](=O)[O-])c3)o2)CC1 [[4-(2-methylphenyl)-1-piperazinyl]-[5-(3-nitrophenyl)-2-furanyl]methanethione]
6,> 80 µM,O=C(NC1CCCCCC1)C(=S)NC1CCCCC1 [SMR000296231]
7,> 80 µM,O=C(N/N=C/c1coc2ccccc2c1=O)c1cc2ccccc2o1 [MLS000700471]
8,> 80 µM,N=C1S/C(=C\c2ccc(O)cc2)C(=O)N1c1ccc(F)cc1 [SMR000298434]
9,> 80 µM,O=C(COc1ccc([N+](=O)[O-])cc1)Nc1nnc(-c2cccnc2)s1 [SMR000385697]
10,> 80 µM,S=C1N=C(C23CC4CC(CC(C4)C2)C3)CC(c2ccc3c(c2)OCO3)N1 (stereo unspecified)
11,37.1 µM,CCc1ccc(NC2=NC(=O)C(=Cc3ccc(OCC(=O)O)cc3)S2)cc1 [2-[4-[(Z)-[2-(4-ethylanilino)-4-oxo-5-thiazolylidene]methyl]phenoxy]acetic acid]
12,4.99 µM,CSc1ccc(CN=Nc2ccc(S(=O)(=O)Nc3ccccc3C(=O)O)cc2[N+](=O)[O-])cc1 [MLS002245633]
13,> 80 µM,CC(/N=N/c1ccc(S(N)(=O)=O)cc1[N+](=O)[O-])c1cccs1 (stereo unspecified)
14,> 80 µM,O=C(O)Cc1cccc(O)c(=O)c1C(=O)O [MLS002703575]
15,> 80 µM,Cc1ccc(S(=O)(=O)c2cnc3ccc(Cl)cc3c2O)cc1
16,> 80 µM,Cc1nnc2sc(-c3ccc(NC(=O)c4ccc(-c5ccc(Cl)cc5Cl)o4)cc3)nn12 [MLS000050448]
17,> 80 µM,"CCCCCn1c(N)c(-c2nc3ccccc3o2)c2c([N+](=O)[O-])nn(C)c(=O)c21 [2-amino-1-amyl-3-(1,3-benzoxazol-2-yl)-6-methyl-4-nitro-pyrrolo[2,3-d]pyridazin-7-one]"
18,5.83 µM,"CC1=C(C(=O)OC(C)C)C(c2ccc(Cl)cc2)n2c(s/c(=C\c3ccc(OCC(=O)O)cc3)c2=O)=N1 (stereo unspecified) [{4-[(5-(4-chlorophenyl)-6-(isopropoxycarbonyl)-7-methyl-3-oxo-5H-[1,3]thiazolo[3,2-a]pyrimidin-2(3H)-ylidene)methyl]phenoxy}acetic acid]"
19,> 80 µM,"Cc1c(CCC(=O)O)c(=O)oc2c(C)c(OCc3cc4c(cc3Cl)OCO4)ccc12 [3-[7-[(6-chloranyl-1,3-benzodioxol-5-yl)methoxy]-4,8-dimethyl-2-oxidanylidene-chromen-3-yl]propanoic acid]"
20,> 80 µM,"CCOc1cc(CN=Nc2nc(O)c(CC(=O)O)s2)ccc1OCc1ccc(Cl)cc1Cl [2-[2-[(N''E)-N''-[4-(2,4-dichlorobenzyl)oxy-3-ethoxy-benzylidene]hydrazino]-4-keto-2-thiazolin-5-yl]acetic acid]"
21,> 80 µM,"O=C1Nc2ccc3sc4ccccc4c3c2C1=O [3H-6-Thia-3-aza-cyclopenta[c]fluorene-1,2-dione]"

row,Compound,IC50
1,Cc1ccc(Cn2cc(C=O)c(-c3ccc(C)cc3)n2)cc1 [3-(4-methylphenyl)-1-[(4-methylphenyl)methyl]-4-pyrazolecarboxaldehyde],> 80 µM

# Same assay, conditions: inactive by the depositor's call
row,IC50,Compound
1,79.6 µM,S=C(NCCCN1CCOCC1)Nc1ccc(-c2nc3ccccc3[nH]2)cc1
2,56.9 µM,CN(C)c1ccc(C(=S)N2CCN(Cc3ccccc3)CC2)cc1 [MLS000679877]
3,60.5 µM,"Cn1c(=O)[nH]c(=O)c2c1nc(SCCN1CCCCC1)n2CCCc1ccccc1 [3-methyl-7-(3-phenylpropyl)-8-[2-(1-piperidinyl)ethylthio]purine-2,6-dione]"
4,21.8 µM,CCC(CC)c1nnc(NC(=O)c2cc(C(=O)OC)cc([N+](=O)[O-])c2)s1
5,25.5 µM,O=C(N/N=C/c1ccc(OC(=O)c2cccs2)cc1)c1cccc(F)c1 [MLS000576933]
6,64.8 µM,Sc1ncnc2c1ncn2-c1ccc(Cl)cc1 [MLS002638664]
7,72.3 µM,O=C(NCCCn1ccnc1)C(Cc1ccccc1)N1C(=O)c2ccccc2C1=O (stereo unspecified) [MLS000040026]
8,22 µM,"OCCN1CCN(C(=S)c2ccc(Cl)c(Cl)c2)CC1 [(3,4-dichlorophenyl)-[4-(2-hydroxyethyl)-1-piperazinyl]methanethione]"
9,76.5 µM,"Cc1ccc(-n2c(C)nc3oc4ccccc4c(=O)c3c2=O)cc1 [2-methyl-3-(4-methylphenyl)[1]benzopyrano[2,3-d]pyrimidine-4,5-dione]"
10,76 µM,NS(=O)(=O)c1ccc(NC(=S)N2CCC(Cc3ccccc3)CC2)cc1 [MLS001196239]
11,32.1 µM,Cc1c(CC(=O)NCCCCCC(=O)O)c(=O)oc2c(C)c3oc4c(c3cc12)CCCC4 [MLS001214831]
12,78.3 µM,"COc1cccc(-c2cc(C(=O)Nc3nc4ccccc4s3)c3ccccc3n2)c1 [N-(1,3-benzothiazol-2-yl)-2-(3-methoxyphenyl)-4-quinolinecarboxamide]"
13,25.5 µM,CCN1CCN(C(=S)c2ccc(Cl)cc2)CC1 [MLS000594090]
14,53.8 µM,CCCCC(=O)Nc1ccc(C(=O)NNC(=O)c2ccc(C)c(Br)c2)cc1 [N-(4-{[2-(3-bromo-4-methylbenzoyl)hydrazino]carbonyl}phenyl)pentanamide]
15,29.7 µM,COc1ccccc1NS(=O)(=O)c1cc(NC(=S)NCCN2CCOCC2)ccc1N1CCOCC1 [MLS000409155]
16,21.3 µM,O=S(=O)(Nc1ccc(Cl)cc1)c1ccc(N2CCOCC2)c(NC(=S)NCCN2CCOCC2)c1
17,44.3 µM,CCOc1ccc(C(=S)N2CCN(C)CC2)cc1 [(4-ethoxyphenyl)-(4-methyl-1-piperazinyl)methanethione]
